Test results published in publication PMC11174926, “Composition Characterization of Cinnamomum osmophloeum Kanehira Hydrosol and Its Enhanced Effects on Erectile Function” (Plants, 2024).

What was measured:
PDE5 [1] = molecular target: T1, PDE5 (Homo sapiens, UniProt O76074); experiment: PDE5 inhibition assay (PDE5A1 assay kit); type: biochemical
T1 construct: purchased BPS Bioscience
Description: The PDE5 assay was determined by using a PDE5A1 assay kit (BPS Bioscience, San Diego, CA, USA). The experiments were conducted following the manufacturer’s protocol. Sildenafil (10 nM) was used as a positive control.

Hep3B cells = experiment: Cytotoxicity, MTT assay; type: cell-based; conditions: 200 µM, 24 h
Description: Figure S19. NOESY spectrum of 2-(2-hydroxyphenyl)oxetan-3-ol (7).
Figure S20. Cytotoxicity of CO hydrosol and its compounds on Hep3B. […]
trans-PO: trans-phenyloxetan-3-ol; cis-PO: cis-phenyloxetan-3-ol; trans-CA: trans- […]
The Hep3B cells were maintained in Dulbecco’s Modified Eagle medium (DMEM; HyClone,Washington, DC, US), supplemented with 10% fetal bovine sera(FBS; Gibco,Waltham, MA, US), 1 mM sodium pyruvate (Corning), and 1% […]
penicillin/streptomycin (Corning) at 37 ℃ in a humidified atmosphere of 5% CO2. Cell viability was measured using a colorimetric MTT assay. Cells were seeded in 96-well plates at a density of 1 × 1 0 4 cells/well. Stock solutions of samples in dimethyl sulfoxide (DMSO; Sigma-Aldrich) were stored in the dark at 4 ℃. Appropriate dilutions were prepared on the day of the experiments. […]
exceed 0.25% (v/v). After 24 h incubated with samples, the culture medium was removed and replaced with fresh medium containing 0.5 mg/mL of MTT (Sigma-Aldrich) for 1 h. The supernatant was removed and added 100 µL DMSO to dissolve formazan. Absorption at 570 nm for each well was measured using an ELISA microplate reader (BioTeck Instruments, Winooski, VT, USA).

PDE5 [2] = test system: PDE5; design: method as in PMID 18778098; conditions: cited from earlier work

What does the source list for `O[C@H]1CO[C@H]1c1ccccc1` (relative stereo) [cis-phenyloxetan-3-ol]?
IC50 (PDE5 [1]): 3.4 µM; inhibition at 0.1 µM (PDE5 [1]; read-out: PDE5 inhibition rate): 10.8%; inhibition at 0.5 µM (PDE5 [1]; read-out: PDE5 inhibition rate): 27.1%; inhibition at 1 µM (PDE5 [1]; read-out: PDE5 inhibition rate): 38.1%; inhibition at 5 µM (PDE5 [1]; 5 µM, read-out: PDE5 inhibition rate): 52.1%; inhibition at 10 µM (PDE5 [1]; read-out: PDE5 inhibition rate): 61.9%; cytotoxicity (Hep3B cells): no cytotoxicity

With `O[C@@H]1CO[C@H]1c1ccccc1` (relative stereo) [trans-phenyloxetan-3-ol] as the molecule, how does the IC50 (PDE5 [1]) read?
Its IC50 is 4.37 µM.

What about the inhibition at 0.1 µM (PDE5 [1]; read-out: PDE5 inhibition rate) of the same molecule?
Its inhibition at 0.1 µM is 11.5%.

And the inhibition at 0.5 µM (PDE5 [1]; read-out: PDE5 inhibition rate)?
Its inhibition at 0.5 µM is 26.1%.

And the inhibition at 1 µM (PDE5 [1]; read-out: PDE5 inhibition rate)?
Its inhibition at 1 µM is 36.7%.

And the inhibition at 10 µM (PDE5 [1]; read-out: PDE5 inhibition rate)?
Its inhibition at 10 µM is 58.4%.

And the inhibition at 20 µM (PDE5 [1]; 20 µM, read-out: PDE5 inhibition rate)?
The inhibition at 20 µM was 65.3%.

And the cytotoxicity (Hep3B cells)?
Its cytotoxicity is “no cytotoxicity”.

Which IC50 (PDE5 [2]) does the source give for `COc1ccc(-c2oc3c(CC=C(C)C)c(O[C@@H]4O[C@H](CO)[C@@H](O)[C@H](O)[C@H]4O)cc(O)c3c(=O)c2O[C@@H]2O[C@@H](C)[C@H](O)[C@@H](O)[C@H]2O)cc1` [icariin] here?
Its IC50 is ~5.9 µM.

With `O=C/C=C/c1ccccc1` [trans-cinnamaldehyde] as the molecule, how does the PDE5 inhibition rate (PDE5 [2]; 10 µM) read?
Its PDE5 inhibition rate is “less than 20%”.
